This note sets out measurements from ChEMBL document CHEMBL1134764, “Inhibition of RANTES/CCR1-mediated chemotaxis by cosalane and related compounds” (Bioorg Med Chem Lett, 2001).

Test system in one assay: not listed separately; call rule not given here
Description: Compound was evaluated for the inhibition of RANTES-induced migration of human monocytes. Format: functional.
For the compound `CC(C)CCCC(C)[C@H]1CC[C@H]2[C@@H]3CCC4C[C@@H](CCC=C(c5cc(Cl)c(OCc6cccc(B(O)O)c6)c(C(=O)O)c5)c5cc(Cl)c(OCc6cccc(B(O)O)c6)c(C(=O)O)c5)CC[C@]4(C)[C@H]3CC[C@]12C` (stereo partly specified), the concentration for half-maximal inhibition (IC50) is 2.2 µM.

`CC(C)CCCC(C)[C@H]1CC[C@H]2[C@@H]3CCC4C[C@@H](CCC=C(c5cc(Cl)c(OCc6ccc(-c7cccc(C(=O)O)c7)cc6)c(C(=O)O)c5)c5cc(Cl)c(OCc6ccc(-c7cccc(C(=O)O)c7)cc6)c(C(=O)O)c5)CC[C@]4(C)[C@H]3CC[C@]12C` (stereo partly specified) had an IC50 of 3 µM.

In the case of `CC(C)CCCC(C)[C@H]1CC[C@H]2[C@@H]3CCC4C[C@@H](CCC=C(c5cc(Cl)c(O)c(C(=O)O)c5)c5cc(Cl)c(O)c(C(=O)O)c5)CC[C@]4(C)[C@H]3CC[C@]12C` (stereo partly specified), the IC50 worked out at 0.76 µM. This IC50 is about 3.9-fold lower than that of the compound before.

On to `CC(C)CCCC(C)[C@H]1CC[C@H]2[C@@H]3CCC4C[C@@H](CCC=C(c5cc(Cl)c(OCc6ccccc6C(=O)O)c(C(=O)O)c5)c5cc(Cl)c(OCc6ccccc6C(=O)O)c(C(=O)O)c5)CC[C@]4(C)[C@H]3CC[C@]12C` (stereo partly specified), for which the IC50 was determined as 3.9 µM.

`CC(C)CCCC(C)[C@H]1CC[C@H]2[C@@H]3CCC4C[C@@H](CCC=C(c5cc(Cl)c(OCc6cccc([N+](=O)[O-])c6)c(C(=O)O)c5)c5cc(Cl)c(OCc6cccc([N+](=O)[O-])c6)c(C(=O)O)c5)CC[C@]4(C)[C@H]3CC[C@]12C` (stereo partly specified) gave an IC50 of 3.5 µM.

Take `CSCC[C@H](NC(=O)c1cc(C(=CCC[C@H]2CC[C@@]3(C)C(CC[C@H]4[C@@H]5CC[C@H](C(C)CCCC(C)C)[C@@]5(C)CC[C@@H]43)C2)c2cc(Cl)c(O)c(C(=O)N[C@@H](CCSC)C(=O)O)c2)cc(Cl)c1O)C(=O)O` (stereo partly specified): it took 0.82 µM to reach half-maximal inhibition (IC50). Against the preceding compound, the IC50 is about 4.3-fold lower.

`CC(C)CCCC(C)[C@H]1CC[C@H]2[C@@H]3CCC4C[C@@H](CCC=C(c5cc(Cl)c(OCc6cccc(C(=O)O)c6)c(C(=O)O)c5)c5cc(Cl)c(OCc6cccc(C(=O)O)c6)c(C(=O)O)c5)CC[C@]4(C)[C@H]3CC[C@]12C` (stereo partly specified) returned an IC50 of 10 µM.

A further assay addresses T1, C-C chemokine receptor type 1 (Homo sapiens, UniProt P32246).
T1 sequence (P32246 whole entry): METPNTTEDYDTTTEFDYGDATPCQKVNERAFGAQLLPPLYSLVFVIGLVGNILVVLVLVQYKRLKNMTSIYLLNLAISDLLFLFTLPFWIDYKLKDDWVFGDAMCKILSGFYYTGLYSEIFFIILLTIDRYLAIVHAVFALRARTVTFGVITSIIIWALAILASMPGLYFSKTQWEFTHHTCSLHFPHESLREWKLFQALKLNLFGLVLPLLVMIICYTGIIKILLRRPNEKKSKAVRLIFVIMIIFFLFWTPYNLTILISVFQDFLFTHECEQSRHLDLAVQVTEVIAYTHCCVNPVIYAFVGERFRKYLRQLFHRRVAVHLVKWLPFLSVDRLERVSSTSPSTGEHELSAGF
Description: Compound was evaluated for the inhibition of RANTES-induced migration of human embryonic kidney (CCR1/HEK) cell transfectants; NA: not active. Format: functional.
Take `CC(C)CCCC(C)[C@H]1CC[C@H]2[C@@H]3CCC4C[C@@H](CCC=C(c5cc(Cl)c(OCc6ccc(C(=O)[O-])cc6)c(C(=O)[O-])c5)c5cc(Cl)c(OCc6ccc(C(=O)[O-])cc6)c(C(=O)[O-])c5)CC[C@]4(C)[C@H]3CC[C@]12C.[Na+].[Na+].[Na+].[Na+]` (stereo partly specified): the IC50 entry is “Not Active”.

Test system in the next assay: not listed separately
Description: Compound was evaluated for the inhibition of RANTES-induced migration of human monocytes; NA: not active. It counts as functional.
Regarding `CC(C)CCCC(C)[C@H]1CC[C@H]2[C@@H]3CCC4C[C@@H](CCC=C(c5cc(Cl)c(O)c(C(=O)N[C@@H](CCC(=O)O)C(=O)O)c5)c5cc(Cl)c(O)c(C(=O)N[C@@H](CCC(=O)O)C(=O)O)c5)CC[C@]4(C)[C@H]3CC[C@]12C` (stereo partly specified), the IC50 entry is on record as “Not Active”.

In the case of `CC(C)CCCC(C)[C@H]1CC[C@H]2[C@@H]3CCC4C[C@@H](CCC=C(c5cc(Cl)c(OCc6ccc(C(=O)[O-])cc6)c(C(=O)[O-])c5)c5cc(Cl)c(OCc6ccc(C(=O)[O-])cc6)c(C(=O)[O-])c5)CC[C@]4(C)[C@H]3CC[C@]12C.[Na+].[Na+].[Na+].[Na+]` (stereo partly specified), the IC50 result is listed as “Not Active”.

For the compound `CC(C)CCCC(C)[C@H]1CC[C@H]2[C@@H]3CCC4C[C@@H](CCC=C(c5cc(Cl)c(OCc6ccc(C(=O)O)cc6)c(C(=O)[O-])c5)c5cc(Cl)c(OCc6ccc(C(=O)O)cc6)c(C(=O)[O-])c5)CC[C@]4(C)[C@H]3CC[C@]12C.[Na+].[Na+]` (stereo partly specified), the IC50 result is reported as “Not Active”.

Consider `CC(C)CCCC(C)[C@H]1CC[C@H]2[C@@H]3CCC4C[C@@H](CCC=C(c5cc(Cl)c(O)c(C(=O)N[C@@H](Cc6ccccc6)C(=O)O)c5)c5cc(Cl)c(O)c(C(=O)N[C@@H](Cc6ccccc6)C(=O)O)c5)CC[C@]4(C)[C@H]3CC[C@]12C` (stereo partly specified), for which the IC50 entry was “Not Active”.

For the compound `CC(C)CCCC(C)[C@H]1CC[C@H]2[C@@H]3CCC4C[C@@H](CCC=C(c5cc(Cl)c(O)c(C(=O)N[C@@H](CC(=O)O)C(=O)O)c5)c5cc(Cl)c(O)c(C(=O)N[C@@H](CC(=O)O)C(=O)O)c5)CC[C@]4(C)[C@H]3CC[C@]12C` (stereo partly specified), the half-maximal inhibitory concentration (IC50) result was “Not Active”.

Regarding `CC(C)CCCC(C)[C@H]1CC[C@H]2[C@@H]3CCC4C[C@@H](CCC=C(c5cc(Cl)c(OCc6ccccc6B([O-])O)c(C(=O)[O-])c5)c5cc(Cl)c(OCc6ccccc6B([O-])O)c(C(=O)[O-])c5)CC[C@]4(C)[C@H]3CC[C@]12C.[Na+].[Na+].[Na+].[Na+]` (stereo partly specified), the 50% inhibitory concentration (IC50) result was “Not Active”.

As for `COc1c(COc2c(Cl)cc(C(=CCC[C@H]3CC[C@@]4(C)C(CC[C@H]5[C@@H]6CC[C@H](C(C)CCCC(C)C)[C@@]6(C)CC[C@@H]54)C3)c3cc(Cl)c(OCc4cccc(C(=O)O)c4OC)c(C(=O)[O-])c3)cc2C(=O)[O-])cccc1C(=O)O.[Na+].[Na+]` (stereo partly specified), the 50% inhibitory concentration (IC50) entry is “Not Active”.

For the compound `CC(C)CCCC(C)[C@H]1CC[C@H]2[C@@H]3CCC4C[C@@H](CCC=C(c5cc(Cl)c(OCc6ccc(B([O-])O)cc6)c(C(=O)[O-])c5)c5cc(Cl)c(OCc6ccc(B([O-])O)cc6)c(C(=O)[O-])c5)CC[C@]4(C)[C@H]3CC[C@]12C.[Na+].[Na+].[Na+].[Na+]` (stereo partly specified), the IC50 entry was “Not Active”.

The term IC50 denotes the concentration at which inhibition is half-maximal.
